In US20230322792A1, “CDK9 INHIBITORS” (Biolexis Therapeutics, Inc., priority 2022, published 2023) one finds IC50 data, which are given here for 14 compounds.

Each structure is given as a SMILES string.

For this experiment, the target named is CDK9/CycT1 (Homo sapiens (Human), UniProt P50750). The experiment in a line: ADP-Glo Kinase Assay. The class given is biochemical. How it is done: ADP-Glo assay kit was purchased from Promega and the CDK9/CycT1 protein and PDKtide substrate were purchased from SignalChem. […] The reaction is started by pre-incubating 4 μL of protein (20 nM), 2 μL of substrate (100 μM), and 2 μL of serial diluted drug in 1× assay buffer (50 mM HEPES, 3 mM MgCl2, 3 mM MnCl2, and 1 mM DTT) for 30 minutes. After pre-incubating, 4 μL of ATP (1 μM) is added to each well and incubated for an additional 90 minutes. The ADP-Glo Reagent (10 μL) and Kinase Detection Reagent (20 μL) are added to each well and incubated as recommended by Promega. The reaction is quantified by measuring luminescence and the IC50 is calculated using GraphPad Prism software.
Sequence of CDK9/CycT1 (P50750 whole entry): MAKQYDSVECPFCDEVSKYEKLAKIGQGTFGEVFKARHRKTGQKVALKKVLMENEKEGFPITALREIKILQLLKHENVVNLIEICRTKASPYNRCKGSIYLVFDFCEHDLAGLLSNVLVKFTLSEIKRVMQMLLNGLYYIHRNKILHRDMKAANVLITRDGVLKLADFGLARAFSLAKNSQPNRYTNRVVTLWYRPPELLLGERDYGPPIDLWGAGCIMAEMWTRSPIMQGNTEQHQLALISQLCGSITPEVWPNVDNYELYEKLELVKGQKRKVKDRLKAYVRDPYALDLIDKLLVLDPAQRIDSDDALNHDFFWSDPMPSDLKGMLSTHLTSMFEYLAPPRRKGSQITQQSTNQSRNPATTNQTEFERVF
Sequence of CDK9/CycT1 (O60563 whole entry partner): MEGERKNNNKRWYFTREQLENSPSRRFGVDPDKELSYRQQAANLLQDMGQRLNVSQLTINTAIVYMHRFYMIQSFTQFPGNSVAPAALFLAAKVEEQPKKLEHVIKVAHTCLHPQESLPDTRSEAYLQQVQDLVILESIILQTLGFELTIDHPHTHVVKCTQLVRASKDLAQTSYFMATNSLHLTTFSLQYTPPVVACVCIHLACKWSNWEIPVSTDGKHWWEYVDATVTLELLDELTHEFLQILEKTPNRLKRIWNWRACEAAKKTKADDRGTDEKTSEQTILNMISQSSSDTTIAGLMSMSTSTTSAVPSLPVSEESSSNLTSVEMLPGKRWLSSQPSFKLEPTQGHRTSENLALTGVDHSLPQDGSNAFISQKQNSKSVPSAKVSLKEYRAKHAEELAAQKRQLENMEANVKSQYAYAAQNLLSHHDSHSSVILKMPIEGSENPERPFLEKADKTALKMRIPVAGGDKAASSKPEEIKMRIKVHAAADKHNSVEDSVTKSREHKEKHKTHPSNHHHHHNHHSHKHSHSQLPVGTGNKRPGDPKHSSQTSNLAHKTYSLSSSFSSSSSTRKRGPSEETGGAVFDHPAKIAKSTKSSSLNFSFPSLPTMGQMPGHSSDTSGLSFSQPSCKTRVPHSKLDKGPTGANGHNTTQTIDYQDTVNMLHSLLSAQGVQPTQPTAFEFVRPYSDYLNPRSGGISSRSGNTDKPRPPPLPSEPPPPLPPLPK
`Cc1cnn2ccc(-c3ccnc(N[C@H]4CC[C@H](N)C4)n3)nc12` [Compound I-12, (1S, 3S)-[3-[4-[3-methylpyrazolo[1,5-a]pyrimidin-5-yl]pyrimidin-2-yl]aminocyclopentan-1-yl]-1,3-diamine]: the IC50 was under 1 µM.
The same measure for `CC(C)c1cnn2ccc(-c3ccnc(N[C@H]4CC[C@H](N)C4)n3)nc12` [Compound I-14, (1S, 3S)-[3-[4-[3-isopropylpyrazolo[1,5-a]pyrimidin-5-yl]pyrimidin-2-yl]aminocyclopentan-1-yl]-1,3-diamine]: under 1 µM.
The same measure for `CC(C)c1cnn2ccc(-c3ccnc(N[C@H]4CC[C@H](NC5CCOCC5)CC4)n3)nc12` [Compound I-3, trans-N^1-[4-[(3-isopropyl)pyrazolo[1,5-a]pyrimidin-5-yl]pyrimidin-2-yl]-N^4-(tetrahydro-2H-pyran-4-yl)cyclohexane-1,4-diamine]: under 1 µM.
Turning to `c1cc(-c2ccn3ncc(C4CCC4)c3n2)nc(N[C@H]2CC[C@H](NC3CCOCC3)CC2)n1` [Compound I-2, trans-N^1-[4-[(3-cyclobutyl)pyrazolo[1,5-a]pyrimidin-5-yl]pyrimidin-2-yl]-N^4-(tetrahydro-2H-pyran-4-yl)cyclohexane-1,4-diamine], the IC50 lay in the range of 1 to 5 µM.
To `O[C@@H]1CNCC[C@H]1CNc1nccc(-c2ccn3ncc(C4CCC4)c3n2)n1` (relative stereo) [Compound I-5, trans-5-[2-(3-hydroxypiperidin-4-yl)methylaminopyrimidin-4-yl]-3-cyclobutylpyrazolo[1,5-a]pyrimidine] belongs 1 to 5 µM.
To `N[C@H]1CC[C@@H](Nc2nccc(-c3ccn4nccc4n3)n2)C1` [Compound I-9, (1S, 3R)-[3-[4-[pyrazolo[1,5-a]pyrimidin-5-yl]pyrimidin-2-yl]aminocyclopentan-1-yl]-1,3-diamine] belongs under 1 µM; to `c1cc(-c2ccn3nccc3n2)nc(N[C@H]2CC[C@H](NC3CCOCC3)CC2)n1` [Compound I-10, trans-N^1-[4-[pyrazolo[1,5-a]pyrimidin-5-yl]pyrimidin-2-yl]-N^4-(tetrahydro-2H-pyran-4-yl)cyclohexane-1,4-diamine], 1 to 5 µM.
Regarding `c1cc(-c2ccn3nccc3n2)nc(NC2CCNCC2)n1` [Compound I-8, trans-5-[2-(piperidin-4-yl)aminopyrimidin-4-yl]pyrazolo[1,5-a]pyrimidine], the IC50 lay in the range of 1 to 5 µM.
To `Cc1cc2nc(-c3ccnc(N[C@H]4CC[C@H](N)C4)n3)ccn2n1` [Compound I-13, (1S, 3S)-[3-[4-[2-methylpyrazolo[1,5-a]pyrimidin-5-yl]pyrimidin-2-yl]aminocyclopentan-1-yl]-1,3-diamine] belongs 5 to 10 µM.
To `CC(C)c1cnn2ccc(-c3ccnc(NC[C@@H]4CCNC[C@H]4O)n3)nc12` (relative stereo) [Compound I-6, trans-5-[2-(3-hydroxypiperidin-4-yl)methylaminopyrimidin-4-yl]-3-isopropylpyrazolo[1,5-a]pyrimidine] belongs under 1 µM; to `O[C@@H]1CNCC[C@H]1CNc1nccc(-c2ccn3nccc3n2)n1` (relative stereo) [Compound I-7, trans-5-[2-(3-hydroxypiperidin-4-yl)methylaminopyrimidin-4-yl]pyrazolo[1,5-a]pyrimidine], 1 to 5 µM.
Take `N[C@H]1CC[C@H](Nc2nccc(-c3ccn4nccc4n3)n2)C1` [Compound I-11, (1S, 3S)-[3-[4-[pyrazolo[1,5-a]pyrimidin-5-yl]pyrimidin-2-yl]aminocyclopentan-1-yl]-1,3-diamine]: the IC50 is under 1 µM.
`c1cc(-c2ccn3ncc(C4CC4)c3n2)nc(N[C@H]2CC[C@H](NC3CCOCC3)CC2)n1` [Compound I-1, trans-N^1-[4-[(3-cyclopropyl)pyrazolo[1,5-a]pyrimidin-5-yl]pyrimidin-2-yl]-N^4-(tetrahydro-2H-pyran-4-yl)cyclohexane-1,4-diamine] registered an IC50 of 1 to 5 µM.
The same measure for `O[C@@H]1CNCC[C@H]1CNc1nccc(-c2ccn3ncc(C4CC4)c3n2)n1` (relative stereo) [Compound I-4, trans-5-[2-(3-hydroxypiperidin-4-yl)methylaminopyrimidin-4-yl]-3-cyclopropylpyrazolo[1,5-a]pyrimidine]: under 1 µM.
